Literature values, collected in patent US8835453B2, “Sustained release implant for granisetron” (Development Center for Biotechnology, priority 2008, dated 2014).
Structures can show the parent of a compound that is named as a salt.

Details: water and normal saline at 20° C.

- solubility: soluble
Compound: CN1C2CCCC1CC(NC(=O)c1nn(C)c3ccccc13)C2 (stereo not drawn) [Granisetron hydrochloride, endo-N-(9-methyl-9-azabicyclo[3.3.1]non-3-yl)-1-methyl-1H-indazole-3-carboxamide]
